Assays:
Type in all cases: in vivo
[1] = test system: lambsquarters (Chenopodium album); assay: Test B pre-/postemergence plant response; conditions: for Lambsquarters plant response rating: postemergence, 0-100 scale; for Plant response rating, Lambsquarters: Postemergence
Procedure, shortened: (§1)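 Preemergence and postemergence (plants 2-18 cm, 1- to 4-leaf stage) applications used test chemicals in a non-phytotoxic solvent with surfactant. Plants were held in a greenhouse 13 to 15 days, then rated visually against controls on a 0-100 scale (0 no effect, 100 complete control).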

[2] = test system: bermudagrass (Cynodon dactylon); assay: Test B pre-/postemergence plant response; conditions: for Bermudagrass plant response rating: 8 g ai/ha
Procedure, shortened: as §1

[3] = test system: wheat (Triticum aestivum); assay: Test B pre-/postemergence plant response
Procedure, shortened: as §1

[4] = test system: morningglory (Ipomoea coccinea); assay: Test B pre-/postemergence plant response
Procedure, shortened: as §1

[5] = test system: common (oilseed) sunflower (Helianthus annuus); assay: Test B pre-/postemergence plant response; conditions: Preemergence; for Sunflower plant response rating: scale 0 to 100
Procedure, shortened: as §1

[6] = test system: Italian ryegrass (Lolium multiflorum); assay: Test B pre-/postemergence plant response
Procedure, shortened: as §1

[7] = test system: pigweed (Amaranthus retroflexus); assay: Test B pre-/postemergence plant response
Procedure, shortened: as §1

[8] = test system: soybean (Glycine max); assay: Test B pre-/postemergence plant response; conditions: for Soybean plant response rating: postemergence, 0-100 scale; for Plant response rating, Soybean: Postemergence
Procedure, shortened: as §1

[9] = test system: surinam grass (Brachiaria decumbens); assay: Test B pre-/postemergence plant response
Procedure, shortened: as §1

[10] = test system: downy bromegrass (Bromus tectorum); assay: Test B pre-/postemergence plant response; conditions: for Bromegrass, Downy plant response rating: 8 g ai/ha
Procedure, shortened: as §1

[11] = test system: giant foxtail (Setaria faberii); assay: Test B pre-/postemergence plant response
Procedure, shortened: as §1

[12] = test system: chickweed (Stellaria media); assay: Test B postemergence plant response; conditions: for Plant response rating, Chickweed: Postemergence
Procedure, shortened: (§2)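 Postemergence spray on 1- to 4-leaf plants (2–18 cm); greenhouse 13–15 d; visual rating vs controls, 0 = no effect, 100 = complete control; dash = not tested.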

[13] = test system: winter barley (Hordeum vulgare); assay: Test B postemergence plant response; conditions: for Plant response rating, Barley: Postemergence, scale 0 to 100, 0 no effect, 100 complete control
Procedure, shortened: as §2

[14] = test system: windgrass (Apera spica-venti); assay: Test B postemergence plant response; conditions: for Windgrass plant response rating: postemergence, 0-100 scale; for Plant response rating, Windgrass: Postemergence
Procedure, shortened: as §2

[15] = test system: canarygrass (Phalaris minor); assay: Test B postemergence plant response; conditions: for Plant response rating, Canarygrass: Postemergence
Procedure, shortened: as §2

[16] = 62 g ai/ha, scale 0 to 100, 0 no effect, 100 complete control
[17] = Postemergence, 16 g ai/ha, scale 0 to 100
[18] = Postemergence, 31 g ai/ha, scale 0 to 100
[19] = Postemergence, 62 g ai/ha, scale 0 to 100, 0 no effect, 100 complete control
[20] = Preemergence, 16 g ai/ha, scale 0 to 100 (0 no effect, 100 complete control)
[21] = Preemergence, 31 g ai/ha, scale 0 to 100 (0 no effect, 100 complete control)
[22] = Preemergence, 62 g ai/ha, 0 to 100 scale, 0 no effect, 100 complete control
[23] = 8 g ai/ha, postemergence, 0-100 scale
[24] = 16 g ai/ha, postemergence, 0-100 scale
[25] = Preemergence, 16 g ai/ha, scale 0 to 100
[26] = Preemergence, 8 g ai/ha, scale 0 to 100

SMILES: Cc1cc(-c2ccc(Cl)cc2)nn1-c1c(OC(=S)N(C)C)cnn(C)c1=O [Compound 69]
- Lambsquarters plant response rating ([1]; 8 g ai/ha): 0
- Lambsquarters plant response rating ([1]; 16 g ai/ha): 0
- Plant response rating, Lambsquarters ([1]; 31 g ai/ha, scale 0 to 100): 0
- Plant response rating, Lambsquarters [1, 16]: 0
- Bermudagrass plant response rating ([2]; postemergence, 0-100 scale): 20
- Plant response rating, Bermudagrass [2, 17]: 65
- Plant response rating, Bermudagrass [2, 18]: 95
- Plant response rating, Bermudagrass [2, 19]: 98
- Bermudagrass plant response rating ([2]; Preemergence, scale 0 to 100 (0 no effect, 100 complete control)): 0
- Plant response rating, Bermudagrass [2, 20]: 0
- Plant response rating, Bermudagrass [2, 21]: 0
- Plant response rating, Bermudagrass [2, 22]: 0
- Wheat plant response rating [3, 23]: 0
- Wheat plant response rating [3, 24]: 35
- Plant response rating, Wheat [3, 18]: 40
- Plant response rating, Wheat [3, 19]: 80
- Plant response rating, Wheat [3, 21]: 0
- Plant response rating, Wheat [3, 22]: 0
- Wheat plant response rating [3, 25]: 0
- Morningglory plant response rating [4, 23]: 0
- Morningglory plant response rating [4, 24]: 0
- Plant response rating, Morningglory [4, 18]: 0
- Plant response rating, Morningglory [4, 19]: 0
- Plant response rating, Morningglory [4, 21]: 0
- Plant response rating, Morningglory [4, 22]: 0
- Morningglory plant response rating [4, 26]: 0
- Morningglory plant response rating [4, 25]: 0
- Plant response rating, Sunflower ([5]; 31 g ai/ha, scale 0 to 100 (0 no effect, 100 complete control)): 0
- Plant response rating, Sunflower ([5]; 62 g ai/ha, 0 to 100 scale, 0 no effect, 100 complete control): 0
- Sunflower plant response rating ([5]; 8 g ai/ha): 0
- Sunflower plant response rating ([5]; 16 g ai/ha): 0
- Ryegrass, Italian plant response rating [6, 23]: 10
- Ryegrass, Italian plant response rating [6, 24]: 55
- Plant response rating, Ryegrass, Italian [6, 18]: 98
- Plant response rating, Ryegrass, Italian [6, 19]: 100
- Plant response rating, Ryegrass, Italian [6, 21]: 60
- Plant response rating, Ryegrass, Italian [6, 22]: 100
- Ryegrass, Italian plant response rating [6, 26]: 0
- Ryegrass, Italian plant response rating [6, 25]: 20
- Pigweed plant response rating [7, 23]: 0
- Pigweed plant response rating [7, 24]: 0
- Plant response rating, Pigweed [7, 18]: 0
- Plant response rating, Pigweed [7, 19]: 0
- Plant response rating, Pigweed [7, 21]: 0
- Plant response rating, Pigweed [7, 22]: 0
- Pigweed plant response rating [7, 26]: 0
- Pigweed plant response rating [7, 25]: 0
- Soybean plant response rating ([8]; 8 g ai/ha): 0
- Soybean plant response rating ([8]; 16 g ai/ha): 0
- Plant response rating, Soybean ([8]; 31 g ai/ha, scale 0 to 100): 0
- Plant response rating, Soybean [8, 16]: 20
- Surinam Grass plant response rating [9, 23]: 65
- Surinam Grass plant response rating [9, 24]: 75
- Plant response rating, Surinam Grass [9, 18]: 80
- Plant response rating, Surinam Grass [9, 19]: 95
- Plant response rating, Surinam Grass [9, 21]: 15
- Plant response rating, Surinam Grass [9, 22]: 35
- Surinam Grass plant response rating [9, 26]: 0
- Surinam Grass plant response rating [9, 25]: 0
- Bromegrass, Downy plant response rating ([10]; postemergence, 0-100 scale): 0
- Plant response rating, Bromegrass, Downy [10, 17]: 0
- Plant response rating, Bromegrass, Downy [10, 18]: 15
- Plant response rating, Bromegrass, Downy [10, 19]: 45
- Plant response rating, Bromegrass, Downy [10, 20]: 0
- Plant response rating, Bromegrass, Downy [10, 21]: 0
- Plant response rating, Bromegrass, Downy [10, 22]: 0
- Bromegrass, Downy plant response rating ([10]; Preemergence, scale 0 to 100): 0
- Foxtail, Giant plant response rating [11, 23]: 60
- Plant response rating, Foxtail, Giant [11, 17]: 85
- Plant response rating, Foxtail, Giant [11, 18]: 100
- Plant response rating, Foxtail, Giant [11, 19]: 100
- Plant response rating, Foxtail, Giant [11, 21]: 0
- Plant response rating, Foxtail, Giant [11, 22]: 0
- Foxtail, Giant plant response rating [11, 26]: 0
- Foxtail, Giant plant response rating [11, 25]: 0
- Chickweed plant response rating [12, 23]: 0
- Plant response rating, Chickweed ([12]; 16 g ai/ha, scale 0 to 100): 0
- Plant response rating, Chickweed ([12]; 31 g ai/ha, scale 0 to 100): 0
- Plant response rating, Chickweed [12, 16]: 0
- Barley plant response rating [13, 23]: 0
- Plant response rating, Barley ([13]; 16 g ai/ha): 0
- Plant response rating, Barley ([13]; 31 g ai/ha): 0
- Plant response rating, Barley ([13]; 62 g ai/ha): 0
- Windgrass plant response rating ([14]; 8 g ai/ha): 0
- Windgrass plant response rating ([14]; 16 g ai/ha): 0
- Plant response rating, Windgrass ([14]; 31 g ai/ha, scale 0 to 100): 10
- Plant response rating, Windgrass [14, 16]: 40
- Canarygrass plant response rating [15, 23]: 0
- Plant response rating, Canarygrass ([15]; 16 g ai/ha, scale 0 to 100): 0
- Plant response rating, Canarygrass ([15]; 31 g ai/ha, scale 0 to 100): 0
- Plant response rating, Canarygrass [15, 16]: 0

— patent publication US20100267561A1, “HERBICIDAL PYRIDAZINONE DERIVATIVES” (priority 2007, published 2010)
